Series [1] in a line: Stability study in pH 4 buffer at 25° C. Type of series: physicochemical. To be noted: for % Parent remaining at 48 h: LCMS, normalized to internal standard; for half-life at 0.2 mg/mL: pH 4 acetate buffer. How it is done: Chemical stability at low pH was investigated for selected compounds. Compounds that are highly unstable may not be suitable as drug candidates, for example due to potential difficulties in achieving and maintaining a stable and therapeutically effective formulation. For instance, compounds intended for oral administration must be chemically stable at the low pH observed in the stomach in order for this to be an acceptable route.
A pH 4 buffer was prepared by mixing 4.1 mL of 0.2 M acetic acid (aq.) with 0.9 mL of a 0.2 M sodium acetate (aq.) and then diluting to 10 mL with distilled water. The pH was determined by pH meter to 4.04.
Benzylpiperidine-4-ol was used as internal standard. A 1 mg/mL stock solution was prepared by dissolving 3.5 mg benzylpiperidine-4-ol in 3.5 mL of water. 500 μL of the stock solution were added to pH 4 buffer (5 mL) and the mixture was shaken.
A 1 mg/mL solution in acetonitrile was prepared for each test compound. Two drops of water were added to ca. 1 mL of acetonitrile in order to completely dissolve Example 2.
To 400 μL of pH 4 buffer with internal standard were added 100 μL of 1 mg/mL test compound solution. The solutions were stored at 25° C. and analyzed by LCMS directly and at different time points up to 48 hours. The [M+H]^+ ion for parent compound (test compound) and the internal standard (m/z 192) were extracted and integrated. The area for the parent compound was normalized to the area of the internal standard for each time point.
The half-life was calculated based on 1st order kinetics (t %=ln2/k). The rate constant (k) was obtained by plotting In[normalized peak area] against time.
Results for half-life and percent parent compound remaining at 48 h for selected examples and a comparative example are shown in Table 5.

Series [2] concerns SaOS-2 His273 mtp53 human osteosarcoma cell line. Description: In vitro efficacy study using the SaOS-2 His273 protocol (CellTiter-Glo viability, 72 h). Type of series: cell-based. The following applies: read-out: SaOS-2 His273 IC50. Here is the method:
SaOS-2 His273 mtp53 is a human osteosarcoma cell line which has been genetically engineered at OnkPat CCK to express His273 mutated p53.
3000 cells/well (50 μl) were seeded into masked (black or white with clear bottom) 96-well cell culture plates using Iscove's Modified Dulbecco's Medium supplemented with 10% heat inactivated (56° C. for 60 min) fetal calf serum. The plates were then incubated for 4 hours, allowing the cells to attach. The test compounds were dissolved in DMSO or water to a concentration of 0.01 M and then further diluted to desired concentrations using the cell medium. 50 μl of freshly diluted test compound from fresh stock was added to the wells. The plates were then incubated for 72 hours.
For viability detection, CellTiter-Glo® Luminescent Cell Viability Assay (CTG) was used. CTG is a homogeneous “add-mix-measure” format method of determining the number of viable cells in culture based on quantitation of the ATP present, an indicator of metabolically active cells. The luminescence was measured using the PerkinElmer Victorx4 instrument.
The average of the signal values for the untreated cells was calculated for each plate. The % of growth suppression was calculated as:
100−((Signal sample/Signal untreated cells)×100).
The results of the SaOs-2 His273 analyses were expressed as IC50 values, i.e. concentration that suppresses growth of at least 50% of the cells. The IC50 values of various compounds according to the invention and of some comparative compounds are shown in Table 1, Table 2, Table 3 and Table 4.

Series [3] relates to MDA-MB-231-Luc human breast cancer cell line carrying mutant p53 (R280K). Description: In vivo efficacy study, orthotopic MDA-MB-231-Luc breast cancer xenograft in nude mice. Also on record: species or system nude mice (Hsd:AthymicNude-Foxnlnu). To be noted: 42 or 125 mg/kg intraperitoneally twice daily, 3 cycles of 5 days, compared to control animals. How it is done: A: Luciferase luminescence from mice xenografted with MDA-MB-231-Luc breast cancer cells. B: Tumor weight at day 33 after beginning of treatment.
The compound of Example 4 was administered intraperitoneally twice daily at 42 or 125 mg/kg to nude mice (Hsd:AthymicNude-Foxnlnu) ortotopically xenografted with the human breast cancer cell line MDA-MB-231-Luc, carrying mutant p53 (R280K). To make MDA-MB-231-Luc, the cell line MDA-MB-231 was stably transfected with a synthetic gene for firefly luciferase, Luc2 (pGL4, Promega). Thereby, the tumor load may be externally monitored by luminescence measurement (radiance values; photon/second/cm^2/steradian). 5×10^6 MBA-MB-231-luc cells were injected, and eight days later the animals were stratified into treatment groups and control, 8 animals in each group, based on luminescence measurement. Treatment was started on day 11 and done in 3 cycles of 5 days each, with 2 days recovery. Tumor progression was evaluated by non-invasive in vivo imaging during the second cycle (day 18) and at the end of treatment (day 32). On day 33, the animals were sacrificed and the tumors excised and weighed.

Where [4] appears, read: SAOS-2, growth suppression, 72 hours incubation, CellTiter-Glo.

Like-named read-outs stand apart in the source and are kept apart here.

The compound `O=C1C2CCN(CC2)C1Cn1cc(F)c(=O)[nH]c1=O` (stereo not shown) [Comparative example 3, 5-fluoro-1-((3-oxoquinuclidin-2-yl)methyl)pyrimidine-2,4(H,3H)-dione, reference compound] yielded a Half-life in series [1] (1st order kinetics) of 15 h. For the same compound, in series [1], the “% Parent remaining at 48 h” value amounted to 18%.
Take `Cc1cn(CC2C(=O)C3CCN2CC3)c(=O)[nH]c1=O` (racemic) [Example 24, 5-methyl-1-((3-oxoquinuclidin-2-yl)methyl)pyrimidine-2,4(1H,3H)-dione]: in series [1], the “% Parent remaining at 48 h” value is recorded as over 95%. This compound also came in with a half-life at 0.2 mg/mL in series [1] (1st order kinetics) of over 630 h. Besides, the IC50 in series [2] (setting [4]) was 6.5 µM.
For `Cc1cn(CC2C(=O)C3CCN2CC3)c(=O)n(CC2C(=O)C3CCN2CC3)c1=O` (stereo not shown) [Example 26, 5-methyl-1,3-bis((3-oxoquinuclidin-2-yl)methyl)-pyrimidine-2,4(1H,3H)-dione], in that order: 73%, 70 h and 4 µM.
For `O=C1C2CCN(CC2)C1Cn1ccc(=O)[nH]c1=O` (racemic) [Example 23, 1-((3-oxoquinuclidin-2-yl)methyl)pyrimidine-2,4(1H,3H)-dione], in that order: 59%, 67 h and 3.2 µM.
In the case of `CS(=O)(=O)NCC1C(=O)C2CCN1CC2` (racemic) [Example 9, N-((3-oxoquinuclidin-2-yl)methyl)methanesulfon-amide], the IC50 in series [2] (SAOS-2, 72 h) amounted to 8 µM.
Take `O=C1C2CCN(CC2)C1CNS(=O)(=O)c1ccccn1` (racemic) [Example 14, N-((3-oxoquinuclidin-2-yl)methyl)pyridine-2-sulfonamide]: in series [2] (SAOS-2, 72 h), the IC50 came to 6 µM.
Same read-out and setting: the result for `CC(=O)NCC1C(=O)C2CCN1CC2` (racemic) [compound 1, N-((3-oxoquinuclidin-2-yl)methyl)acetamide, reference compound] reads over 40 µM; that for `O=C1C2CCN(CC2)C1CNS(=O)(=O)c1ccccc1` (racemic) [Example 10, N-((3-oxoquinuclidin-2-yl)methyl)benzenesulfon-amide], 7.1 µM.
In the case of `O=C1C2CCN(CC2)C1Cc1cnn[nH]1` (racemic) [Comparative example 5, 2-((1H-1,2,3-triazol-5-yl)methyl)quinuclidin-3-one, reference compound], in series [2] (SAOS-2, 72 h), the half-maximal inhibitory concentration (IC50) was over 40 µM.
The same measure, in the same setting: with `O=C(NCC1C(=O)C2CCN1CC2)c1cccnc1` (racemic) [compound 2, N-((3-oxoquinuclidin-2-yl)methyl)nicotinamide, reference compound] the figure was over 40 µM; with `O=C1C2CCN(CC2)C1CNS(=O)(=O)C(F)(F)F` (racemic) [Example 16, 1,1,1-trifluoro-N-((3-oxoquinuclidin-2-yl)methyl)methanesulfonamide], 2.9 µM.
For the compound `O=C1C2CCN(CC2)C1CNC(=O)C(F)(F)F` (racemic) [Example 4, 2,2,2-trifluoro-N-((3-oxoquinuclidin-2-yl)methyl)acetamide], the “tumor cell migration as measured by radiance of luminescence (FIG. 1A)” value in series [3] (imaging day 18 and day 32) is on record as “reduced tumor cell migration compared to control animals”. Besides, the “tumor weight (FIG. 1B)” value in series [3] (tumors excised day 33) is on record as “reduced tumor weight compared to control animals”. Further, the IC50 in series [2] (setting [4]) was determined as 5.6 µM.
Turning to `O=C1C2CCN(CC2)C1CNS(=O)(=O)c1cccnc1` (racemic) [Example 6, N-((3-oxoquinuclidin-2-yl)methyl)pyridine-3-sulfonamide], the IC50 in series [2] (SAOS-2, 72 h) was found to be 7.2 µM.
Still for that read-out and setting: the result for `CN(C)C(=O)c1ncn(CC2C(=O)C3CCN2CC3)n1` (single isomer, unassigned) [Example 29, N,N-dimethyl-1-((3-oxoquinuclidin-2-yl)methyl)-1H-1,2,4-triazole-3-carboxamide] reads 8.8 µM.
Same read-out and setting: the result for `N#Cc1ncn(CC2C(=O)C3CCN2CC3)n1` (racemic) [Example 31, 1-((3-oxoquinuclidin-2-yl)methyl)-1H-1,2,4-triazole-3-carbonitrile] reads 2.4 µM.
`CS(=O)(=O)N(CC1C(=O)C2CCN1CC2)CC1C(=O)C2CCN1CC2` (stereo not shown) [Example 17, N,N-bis((3-oxoquinuclidin-2-yl)methyl)methanesulfonamide]: the IC50 in series [2] (SAOS-2, 72 h) is 2.9 µM.
For the compound `CCN(CC1C(=O)C2CCN1CC2)S(=O)(=O)C(F)(F)F` (racemic) [Example 15, N-ethyl-1,1,1-trifluoro-N-((3-oxoquinuclidin-2-yl)-methyl)methanesulfonamide], the IC50 in series [2] (SAOS-2, 72 h) was found to be 3.5 µM.
Still for that read-out and setting: with `O=C1C2CCN(CC2)C1CNS(=O)(=O)c1ccncc1` (racemic) [Example 13, N-((3-oxoquinuclidin-2-yl)methyl)pyridine-4-sulfon-amide] the figure was 6.3 µM; with `CCN(CC1C(=O)C2CCN1CC2)S(C)(=O)=O` (racemic) [Example 8, N-ethyl-N-((3-oxoquinuclidin-2-yl)methyl)methane-sulfonamide], 6 µM.

For the origin of these results see patent US20220071970A1, “QUINUCLIDINE-3-ONE DERIVATIVES AND THEIR USE IN CANCER TREATMENT” (Aprea Therapeutics AB, priority 2018, published 2022).
